Test results reported in EP2966448B1, “METHOD FOR THE PREDICTION OR PROGNOSIS OF THE RESPONSE OF A HUMAN SUBJECT SUFFERING FROM CANCER TO TREATMENT WITH AN ANTAGONIST OF THE NK1 RECEPTOR” (priority 2013, dated 2014).
Like-named read-outs stand apart in the source and are kept apart here.

Experiments:
Non Hodgkin Lymphoma T = assay: Inhibition of primary tumor cell cultures (48 hours) vs NK1 receptor immunostaining (Example 1); type: cell-based; settings: Homo sapiens, 1 micromolar, read-out: Percentage of inhibition of cell cultures
Protocol: (§1) Cell cultures. To obtain tumor cells from human primary tumors we used the method described in De Bari et al. (De Bari et al. 2001). Briefly, small pieces of the tumors were digested into a hyaluronidase solution (Sigma-Aldrich, USA) at a concentration of 1 mg/ml during 15 minutes at 37°C, and then they were treated with 6 mg/ml of collagenase type IV (Invitrogen) during 2 hours at 37°C. Consecutively, cells were washed, and resuspended in the DMEM culture medium with high concentration of glucose (Dulbecco's Modified Eagle's Medium, Invitrogen) supplemented with 1% of antibiotics-antimycotics (Invitrogen) and with 1% of sodium pyruvate (Invitrogen), and the cells were seeded in culture slides at a concentration of 10.000 cells per square centimeter. When cells reached confluence, the adherent cells were separated using sterile trypsin at 0,5% (Invitrogen) and they were used among passages 3 and 9. For the assays shown next, tumor cells were seeded on slides at a concentration of 25.000 cells per well. A total of 6 wells containing the tumor cells were used as survival control. […] All the cultures were kept during 48 hours and later on recollected for their analysis.
(§2) Immunohistochemistry techniques. The presence of NK1 receptors was also analyzed using immunohistochemistry techniques. Briefly, a sample of each of the cultures of the cell lines used in the present invention, was centrifuged (5 minutes at 1.500 rpm) and the pellet obtained was dehydrated using increasing concentrations of ethanol and, finally, xylol. Then, said dehydrated samples were embedded in paraffin, creating a block of cells. Such paraffin blocks were cut with a microtome at 5 microns thickness, and were placed on microscope slides adequate to perform immunohistochemistry techniques. Consecutively, they were de-paraffinized by immersing them in xylol, to be finally hydrated using a solution containing decreasing concentrations of ethanol, and finally submerged them into water. […] After this, the samples were left to cool down at room temperature for 10 minutes. The endogenous peroxidase activity was blocked with 3% peroxide of hydrogen for 30 minutes at room temperature. After washing the samples with 0.05 M of Tris buffer, they were incubated with 10% non-immune pork serum at for 30 minutes at room temperature. To analyze the expression of NK1 receptors, the cellular samples were incubated in the presence of anti-NK1 antibodies (S8305, Sigma-Aldrich) diluted 1:1000, overnight at 4°C. Afterwards, the samples were washed in Tris buffer 0.05 M at room temperature. The next step was the addition of Envision System-HRP (Dako) reagents for 30 minutes at room temperature. Then, the samples were washed again in Tris buffer 0.05 M and the immunoreactivity was visualized through light microscopy with a chromogenic solution containing 3,3'-Diaminobenzidine (DAB+; Dako, USA). To differentiate the cell nuclei, they were slightly stained with hematoxylin. As negative control, it was used samples not incubated with the primary antibody anti-NK1, which was replaced by non-immune serum. All the samples were evaluated.
(§3) To value the immunostaining in each of the cases six cuts were performed to be analyzed by the immunohistochemistry technique. In each of the six cuts, it was counted cells in 20 fields (magnification 400x) using an Olympus microscope (model CX31). In each field it was counted the total number of cells and the number of cells presenting immunostaining, calculating afterwards the percentage of cells which presented immunostaining.

[1] = test system: human primary tumor cells; assay: Inhibition of primary tumor cell cultures vs amplification of the gene encoding the NK1 receptor (Example 6; tumor type per table line); type: cell-based; settings: for Percentage of inhibition of cell cultures: 100 micromolar
Protocol: (§4) Cell cultures. […] Briefly, small pieces of the tumors were digested into a hyaluronidase solution (Sigma-Aldrich, USA) at a concentration of 1 mg/ml during 15 minutes at 37°C, and then they were treated with 6 mg/ml of collagenase type IV (Invitrogen) during 2 hours at 37°C. Consecutively, cells were washed, and resuspended in the DMEM culture medium with high concentration of glucose (Dulbecco's Modified Eagle's Medium, Invitrogen) supplemented with 1% of antibiotics-antimycotics (Invitrogen) and with 1% of sodium pyruvate (Invitrogen), and the cells were seeded in culture slides at a concentration of 10.000 cells per square centimeter. When cells reached confluence, the adherent cells were separated using sterile trypsin at 0,5% (Invitrogen) and they were used among passages 3 and 9. For the assays shown next, tumor cells were seeded on slides at a concentration of 25.000 cells per well. A total of 6 wells containing the tumor cells were used as survival control. […] All the cultures were kept during 48 hours and later on recollected for their analysis.
The presence or absence of the amplification of the gene encoding for the NK1 receptor was determined, and then the cells were cultured in the presence of several antagonists of the NK1 receptor.
For each case, the presence or absence of amplification of the gene encoding for the NK1 receptor was determined.
In order to determine the presence of the amplification (increase in the number of copies) of the gene encoding the NK1 receptor (TAC1R), it was used the comparative genomic hybridization technique (CGH Array). Firstly genomic DNA was extracted from each case. Later, it was performed the marking and hybridization of the DNA of each sample together with DNA of a commercial reference without genomic alterations (from masculine or feminine sex, depending on the gender of the patient from whom the samples were obtained). The Array is Sureprint G3 Human CGH Microarray from the company Agilent was used, with an average separation between probes of 5.3Kb and 4.6Kb for the genes RefSeq. The reading of the microarray was done with the DNA Microarray Scanner G2565CA from Agilent, at a resolution of 3 µm. The analysis of the results was performed with the software Cytogenomics v 2.0.6.0 from Agilent with ADM-2: 6.0; Centralization: ON (Threshold: 6.0, Bin size: 10); Fuzzy zero: ON; Aberration filters: ON (minProbes=5 and minAvgAbsLopRatio= 0,5); Feature Level Filters : ON. The genomic coordinates are coincident with the NCBI36genome (hg18). Cases were distributed in two groups: Group I for those cases without the amplification of the gene encoding the NK1 receptor (locus 2p13.1-p12), and Group II for those cases with amplification of the gene encoding the NK1receptor (locus 2p13.1-p12).
The antibody against NK1 receptor (Table 36) was used at 1/50 concentration. The percentages of inhibition are expressed in percentages of variation in relation to control ± standard deviation.

[2] = test system: Breast carcinoma (ductal adenocarcinoma); assay: Inhibition of primary tumor cell cultures vs Kras mutation (Example 2); type: cell-based, human; settings: Homo sapiens, 100 micromolar, read-out: Percentage of inhibition of cell cultures
Protocol: as §4
(§5) In each case the presence or not of mutations in K-ras gene was determined.
(§6) To determine the existence of mutations in the K-ras gene DNA from cancer tumor cells was extracted from samples obtained from the different cancer tumor cells, using DNA extraction kits from Takara (Madison, WI, US) or Ambion (Huntingdon, Cambridgeshire, United Kingdom), following the manufacturer's instructions, and as it has been previously published (Di Fiore F, et al. 2007). Consecutively it was analyzed by sequencing the exon 2 of the KRAS gene, , by means of PCR amplification from previously extracted cancer tumor DNA, using the following sense primer (SEQ ID NO. 15): 5'-[sequence]-3' and anti-sense primer (SEQ ID NO. 16): 5'-[sequence]-3'. After the purification using the Qiagen extraction kit, the PCR products were sequenced using the Big Dye Terminator Kit V3.1 (Applied Biosystems, Foster City, CA, U.S.) and an ABI Prism 377 or 3100 DNA sequencer (Applied Biosystems). The presence of a heterozygous mutation in the KRAS gene in cancer tumor cells of the cultures was defined as the appearance of a mutant peak of a height of at least a third of the wild type. All the sequence analysis were executed at least twice in two independent PCR.
The antibody against NK1 receptor (Table 16) was used at 1/50 concentration. The percentages of inhibition are expressed in percentage of variation in relation to control ± standard deviation.

[3] = test system: Non Hodgkin Lymphoma T (diffuse T cell lymphoma); assay: as above; type: cell-based, human; settings: Homo sapiens, T-cell, 100 micromolar, read-out: Percentage of inhibition of cell cultures
Protocol: as §1, §5, §6
The percentages of inhibition are expressed in percentage of variation in relation to control ± standard deviation.

Prostate carcinoma = assay: cells; settings: Homo sapiens, 1 micromolar
Protocol: as §1, §2, §3

Non Hodgkin Lymphoma B = assay: Inhibition of primary tumor cell cultures (48 hours) vs NK1 receptor immunostaining (Example 1); type: cell-based; settings: Homo sapiens, 1 micromolar, read-out: Percentage of inhibition of cell cultures
Protocol: as §1, §2, §3

[4] = test system: Lung carcinoma (non small cell type); assay: as above; type: cell-based; settings: Homo sapiens, 1 micromolar, read-out: Percentage of inhibition of cell cultures
Protocol: as §1, §2, §3

Pancreatic carcinoma = assay: as above; type: cell-based; settings: Homo sapiens, 1 micromolar, read-out: Percentage of inhibition of cell cultures
Protocol: as §1, §2, §3

Myeloma = assay: as above; type: cell-based; settings: Homo sapiens, 1 micromolar, read-out: Percentage of inhibition of cell cultures
Protocol: as §1, §2, §3

[5] = NK1 receptor immunostaining Group 3 (more than 80% of the cells)
[6] = NK1 receptor immunostaining Intensity grade 1
[7] = NK1 receptor immunostaining Intensity grade 2
[8] = NK1 receptor immunostaining Intensity grade 3
[9] = Cases with Kras non-mutated (wild type)
[10] = NK1 receptor immunostaining Group 1 (less than 20% of the cells)
[11] = NK1 receptor immunostaining Group 2 (20-80% of the cells)

Compound: CC(=O)N1CCN([C@H]2CCN(C(=O)N(C)[C@H](C)c3cc(C(F)(F)F)cc(C(F)(F)F)c3)[C@@H](c3ccc(F)cc3C)C2)CC1 [Casopitant]
- inhibition at 1 µM (Non Hodgkin Lymphoma T; [5]): 94 ± 5%
- inhibition at 1 µM (Non Hodgkin Lymphoma T; [6]): 36 ± 5%
- inhibition at 1 µM (Non Hodgkin Lymphoma T; [7]): 54 ± 5%
- inhibition at 1 µM (Non Hodgkin Lymphoma T; [8]): 92 ± 2%
- Percentage of inhibition of cell cultures ([1]; Breast carcinoma (ductal adenocarcinoma), Cases with amplification of the gene that encodes for the NK1 receptor): 94±7 percentage
- Percentage of inhibition of cell cultures ([1]; Breast carcinoma (ductal adenocarcinoma), Cases without amplification of the gene that encodes for the NK1 receptor): 23±8 percentage
- Percentage of inhibition of cell cultures ([1]; Burkitt Lymphoma, Cases with amplification of the gene that encodes for the NK1 receptor): 93±6 percentage
- Percentage of inhibition of cell cultures ([1]; Burkitt Lymphoma, Cases without amplification of the gene that encodes for the NK1 receptor): 24±5 percentage
- Percentage of inhibition of cell cultures ([1]; Carcinoma of the uterine cervix (Squamous cell carcinoma), Cases with amplification of the gene that encodes for the NK1 receptor): 94±6 percentage
- Percentage of inhibition of cell cultures ([1]; Carcinoma of the uterine cervix (Squamous cell carcinoma), Cases without amplification of the gene that encodes for the NK1 receptor): 23±6 percentage
- Percentage of inhibition of cell cultures ([1]; Colon carcinoma (Adenocarcinoma), Cases with amplification of the gene that encodes for the NK1 receptor): 96±4 percentage
- Percentage of inhibition of cell cultures ([1]; Colon carcinoma (Adenocarcinoma), Cases without amplification of the gene that encodes for the NK1 receptor): 24±4 percentage
- Percentage of inhibition of cell cultures ([1]; Endometrium carcinoma, Cases with amplification of the gene that encodes for the NK1 receptor): 96±5 percentage
- Percentage of inhibition of cell cultures ([1]; Endometrium carcinoma, Cases without amplification of the gene that encodes for the NK1 receptor): 24±4 percentage
- Percentage of inhibition of cell cultures ([1]; Gastric carcinoma (Adenocarcinoma), Cases with amplification of the gene that encodes for the NK1 receptor): 95±5 percentage
- Percentage of inhibition of cell cultures ([1]; Gastric carcinoma (Adenocarcinoma), Cases without amplification of the gene that encodes for the NK1 receptor): 23±5 percentage
- Percentage of inhibition of cell cultures ([1]; Glioma (astrocytoma), Cases with amplification of the gene that encodes for the NK1 receptor): 95±4 percentage
- Percentage of inhibition of cell cultures ([1]; Glioma (astrocytoma), Cases without amplification of the gene that encodes for the NK1 receptor): 24±6 percentage
- Percentage of inhibition of cell cultures ([1]; Lung carcinoma (non small cell lung carcinoma), Cases with amplification of the gene that encodes for the NK1 receptor): 96±5 percentage
- Percentage of inhibition of cell cultures ([1]; Lung carcinoma (non small cell lung carcinoma), Cases without amplification of the gene that encodes for the NK1 receptor): 26±6 percentage
- Percentage of inhibition of cell cultures ([1]; Lung carcinoma (small cell lung carcinoma), Cases with amplification of the gene that encodes for the NK1 receptor): 95±4 percentage
- Percentage of inhibition of cell cultures ([1]; Lung carcinoma (small cell lung carcinoma), Cases without amplification of the gene that encodes for the NK1 receptor): 24±4 percentage
- Percentage of inhibition of cell cultures ([1]; Melanoma (Nodular Melanoma), Cases with amplification of the gene that encodes for the NK1 receptor): 97±5 percentage
- Percentage of inhibition of cell cultures ([1]; Melanoma (Nodular Melanoma), Cases without amplification of the gene that encodes for the NK1 receptor): 26±4 percentage
- Percentage of inhibition of cell cultures ([1]; Non Hodgkin Lymphoma B (diffuse B cell lymphoma), Cases with amplification of the gene that encodes for the NK1 receptor): 95±7 percentage
- Percentage of inhibition of cell cultures ([1]; Non Hodgkin Lymphoma B (diffuse B cell lymphoma), Cases without amplification of the gene that encodes for the NK1 receptor): 27±5 percentage
- Percentage of inhibition of cell cultures ([1]; Non Hodgkin Lymphoma T (diffuse T cell lymphoma), Cases with amplification of the gene that encodes for the NK1 receptor): 95±5 percentage
- Percentage of inhibition of cell cultures ([1]; Non Hodgkin Lymphoma T (diffuse T cell lymphoma), Cases without amplification of the gene that encodes for the NK1 receptor): 28±7 percentage
- Percentage of inhibition of cell cultures ([1]; Ovarian carcinoma(Adenocarcinoma), Cases with amplification of the gene that encodes for the NK1 receptor): 95±4 percentage
- Percentage of inhibition of cell cultures ([1]; Ovarian carcinoma(Adenocarcinoma), Cases without amplification of the gene that encodes for the NK1 receptor): 24±5 percentage
- Percentage of inhibition of cell cultures ([1]; Pancreatic carcinoma (Adenocarcinoma), Cases with amplification of the gene that encodes for the NK1 receptor): 97±5 percentage
- Percentage of inhibition of cell cultures ([1]; Pancreatic carcinoma (Adenocarcinoma), Cases without amplification of the gene that encodes for the NK1 receptor): 26±6 percentage
- Percentage of inhibition of cell cultures ([1]; Prostate carcinoma, Cases with amplification of the gene that encodes for the NK1 receptor): 96±5 percentage
- Percentage of inhibition of cell cultures ([1]; Prostate carcinoma, Cases without amplification of the gene that encodes for the NK1 receptor): 27±5 percentage
- Percentage of inhibition of cell cultures ([1]; Renal cell carcinoma (clear cell renal cell carcinoma), Cases with amplification of the gene that encodes for the NK1 receptor): 93±6 percentage
- Percentage of inhibition of cell cultures ([1]; Renal cell carcinoma (clear cell renal cell carcinoma), Cases without amplification of the gene that encodes for the NK1 receptor): 27±7 percentage
- Percentage of inhibition of cell cultures ([1]; Thyroid carcinoma (follicular carcinoma), Cases with amplification of the gene that encodes for the NK1 receptor): 94±6 percentage
- Percentage of inhibition of cell cultures ([1]; Thyroid carcinoma (follicular carcinoma), Cases without amplification of the gene that encodes for the NK1 receptor): 26±5 percentage
- Percentage of inhibition of cell cultures ([1]; Thyroid carcinoma (papillary carcinoma), Cases with amplification of the gene that encodes for the NK1 receptor): 96±5 percentage
- Percentage of inhibition of cell cultures ([1]; Thyroid carcinoma (papillary carcinoma), Cases without amplification of the gene that encodes for the NK1 receptor): 24±7 percentage
- Percentage of inhibition of cell cultures ([1]; Undifferentiated Pleomorphic Sarcoma (malignant fibrous histiocytoma grade 3), Cases with amplification of the gene that encodes for the NK1 receptor): 96±6 percentage
- Percentage of inhibition of cell cultures ([1]; Undifferentiated Pleomorphic Sarcoma (malignant fibrous histiocytoma grade 3), Cases without amplification of the gene that encodes for the NK1 receptor): 25±7 percentage
- Percentage of inhibition of cell cultures ([1]; Urinary bladder carcinoma (transitional cell carcinoma), Cases with amplification of the gene that encodes for the NK1 receptor): 97±3 percentage
- Percentage of inhibition of cell cultures ([1]; Urinary bladder carcinoma (transitional cell carcinoma), Cases without amplification of the gene that encodes for the NK1 receptor): 26±4 percentage
- inhibition of cell proliferation ([1]; cancer cell cultures which show amplification in the genomic region encoding the NK1 receptor, compared, non-peptidic antagonists 100 micromolar, antibody 1/50): higher inhibition
- inhibition at 100 µM ([2]; Cases with Kras mutated): 28 ± 6%
- inhibition at 100 µM [2, 9]: 96 ± 4%
- inhibition at 100 µM ([3]; Cases with Kras mutated): 26 ± 4%
- inhibition at 100 µM [3, 9]: 96 ± 5%
- inhibition at 1 µM (Prostate carcinoma; read-out: Percentage of inhibition of cell cultures, NK1 receptor immunostaining Group 1 (less than 20% of the cells)): 16 ± 2%
- inhibition at 1 µM (Prostate carcinoma; read-out: Percentage of inhibition of cell cultures, NK1 receptor immunostaining Group 2 (20-80% of the cells)): 45 ± 4%
- inhibition at 1 µM (Prostate carcinoma; read-out: Percentage of inhibition of cell cultures, NK1 receptor immunostaining Group 3 (more than 80% of the cells)): 93 ± 4%
- inhibition at 1 µM (Prostate carcinoma; read-out: Percentage of inhibition of cell cultures, NK1 receptor immunostaining Intensity grade 1): 33 ± 5%
- inhibition at 1 µM (Prostate carcinoma; read-out: Percentage of inhibition of cell cultures, NK1 receptor immunostaining Intensity grade 2): 53 ± 3%
- inhibition at 1 µM (Prostate carcinoma; read-out: Percentage of inhibition of cell cultures, NK1 receptor immunostaining Intensity grade 3): 94 ± 2%
- inhibition at 1 µM (Non Hodgkin Lymphoma B; [10]): 15 ± 3%
- inhibition at 1 µM (Non Hodgkin Lymphoma B; [11]): 46 ± 5%
- inhibition at 1 µM (Non Hodgkin Lymphoma B; [5]): 94 ± 4%
- inhibition at 1 µM (Non Hodgkin Lymphoma B; [6]): 32 ± 3%
- inhibition at 1 µM (Non Hodgkin Lymphoma B; [7]): 55 ± 5%
- inhibition at 1 µM (Non Hodgkin Lymphoma B; [8]): 94 ± 4%
- inhibition at 1 µM [4, 10]: 10 ± 2%
- inhibition at 1 µM [4, 11]: 46 ± 2%
- inhibition at 1 µM [4, 5]: 92 ± 5%
- inhibition at 1 µM [4, 6]: 32 ± 4%
- inhibition at 1 µM [4, 7]: 54 ± 4%
- inhibition at 1 µM [4, 8]: 93 ± 3%
- inhibition at 1 µM (Pancreatic carcinoma; [10]): 10 ± 4%
- inhibition at 1 µM (Pancreatic carcinoma; [11]): 45 ± 2%
- inhibition at 1 µM (Pancreatic carcinoma; [5]): 92 ± 4%
- inhibition at 1 µM (Pancreatic carcinoma; [6]): 33 ± 5%
- inhibition at 1 µM (Pancreatic carcinoma; [7]): 53 ± 3%
- inhibition at 1 µM (Pancreatic carcinoma; [8]): 93 ± 1%
- inhibition at 1 µM (Myeloma; [10]): 16 ± 3%
- inhibition at 1 µM (Myeloma; [11]): 47 ± 4%
- inhibition at 1 µM (Myeloma; [5]): 94 ± 5%
- inhibition at 1 µM (Myeloma; [6]): 35 ± 3%
- inhibition at 1 µM (Myeloma; [7]): 55 ± 3%
- inhibition at 1 µM (Myeloma; [8]): 93 ± 3%
